Assay results: publication PMC11446282
No end group written: not given here.

Columns and labels:
[1] = tested on: B55α interactors; assay: MS analysis of B55α WT, V228A, I284A, S287A and D340A immunopurifications; assay type: binding, human; details: log2 ratio of interactor abundance, 4 replicates each, normalised to bait B55α; for log2_ratio_D340_WT: B55α D340A vs WT immunopurification; for log2_ratio I284_WT: B55α I284A vs WT immunopurification; for log2_ratio S287_WT: B55α S287A vs WT immunopurification; for log2_ratio V228_WT: B55α V228A vs WT immunopurification
Procedure: Standard cloning techniques were used throughout. Point mutations were introduced by whole plasmid polymerase chain reaction (PCR). All constructs were fully sequenced. Synthetic DNA was purchased from GeneArt, Life Technologies and cloned into pcDNA5/FRT/TO (Invitrogen) expression vector containing YFP, resulting in the indicated YFP fusion proteins. These constructs were transiently transfected into HeLa cells 24 hours before harvesting cells. Cells were lysed in lysis buffer [50 mM tris-HCl (pH 7.5), 50 mM NaCl, 1 mM EDTA, 1 mM […], and 0.1% NP-40]. Complexes were immunoprecipitated at 4°C in lysis buffer with green fluorescent protein (GFP)–Trap (ChromoTek) and washed in lysis buffer. Precipitated protein complexes were washed three times in lysis buffer, eluted in 2× SDS sample buffer, and subjected to Western blotting or MS as indicated.
Pull-downs were analyzed on a Q-Exactive Plus quadrupole or Fusion Orbitrap Lumos mass spectrometer (Thermo Fisher Scientific) equipped with Easy-nLC 1000 or […] (Thermo Fisher Scientific) and nanospray source (Thermo Fisher Scientific).
Static modifications included carbamidomethylcysteine, and variable modifications included oxidized methionine and STY phosphorylation. Searches were filtered using orthogonal measures including mass measurement accuracy (±3 parts per million), Xcorr for charges from +2 to +4, and dCn targeting a <1% false discovery rate at the peptide level. Quantification of LC-MS/MS spectra was performed using MassChroQ ([57]) and the iBAQ method ([58]). All data were analyzed using R 4.3.0. Missing values were imputed from a normal distribution. […] In each dataset, the abundance of the protein of interest was normalized to be equal across all samples. Statistical analyses were done using a two-tailed Student’s t test.

[2] = tested on: PP2A-B55α; assay: Affinity purification of YFP-tagged designed peptides from HeLa cells, binding to PP2A-B55α by Western blot; set-up: species or system human; details: experimental binding of YFP-tagged designed peptide to PP2A-B55α
[3] = biological target: T1, B55α (Homo sapiens, UniProt P63151); assay: Surface plasmon resonance with captured Twin-Strep B55α; assay type: binding; details: same SPR approach as for B55i; fig. S15
T1 construct: His; made in house; host or cells: HEK293 cells
T1 sequence (P63151 1-447): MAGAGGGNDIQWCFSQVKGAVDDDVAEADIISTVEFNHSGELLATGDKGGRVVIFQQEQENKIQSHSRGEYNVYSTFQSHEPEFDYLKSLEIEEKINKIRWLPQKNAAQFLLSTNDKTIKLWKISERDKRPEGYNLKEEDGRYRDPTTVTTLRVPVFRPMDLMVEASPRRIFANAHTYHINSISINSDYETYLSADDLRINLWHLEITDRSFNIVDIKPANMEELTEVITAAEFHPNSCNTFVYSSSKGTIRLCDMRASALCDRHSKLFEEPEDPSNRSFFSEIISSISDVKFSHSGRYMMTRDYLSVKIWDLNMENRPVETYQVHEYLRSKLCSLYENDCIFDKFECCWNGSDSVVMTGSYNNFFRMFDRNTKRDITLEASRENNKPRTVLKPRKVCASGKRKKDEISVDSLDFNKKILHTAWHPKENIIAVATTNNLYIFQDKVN

Substance	log2_ratio_D340_WT [1]	log2_ratio I284_WT [1]	log2_ratio S287_WT [1]	log2_ratio V228_WT [1]	binding to PP2A-B55α (Western blot) [2]	binding to B55α, affinity range [3]
BAG3_HUMAN	0.51	0.79	1.17	0.37	–	–
DNJA2_HUMAN	1.00	0.64	1.02	0.87	–	–
DNJB6_HUMAN	-0.39	0.42	1.10	2.13	–	–
EEKLRILEKMEEKLKDKSLSLEKKVLLKNAKKSL	–	–	–	–	28	–
EKILEIAKKKIEELKKKPGGLDLEKYLLYKKLIEKV	–	–	–	–	15	–
EKRKKLKEKALEKLKDPNRDLEEKVLLRNWLKSL	–	–	–	–	14	–
ELIKRLYEKAKEKLKDESRSLEKKVLLRNWIKSL	–	–	–	–	62.5	–
ELPLEEVERLLKLAEEKLKDESLSLTKKVLLRNL	–	–	–	–	55.5	–
HAX1_HUMAN	-0.10	-0.26	0.0269	-0.50	–	–
HS90A_HUMAN	-0.17	-0.24	0.22	-0.28	–	–
HS90B_HUMAN	-0.13	-0.16	0.29	-0.12	–	–
HSPB1_HUMAN	-1.28	-0.92	-0.85	-0.80	–	–
LLELAKKKYEEELKKKEPDLTKLVLLKNVIKKLK	–	–	–	–	42	–
MQPINKARALYRISHLKLSNSKREQDEQVLLRLHMIAFLNIVNHT	–	–	–	–	0	–
PVKLQLLKKAKEKLADENLSLEKKVLLKNLIKSW	–	–	–	–	68	–
QIIQRSFSSPENFQRQAVMNSALRQMSYGGW [RBM7 129–158 WT]	–	–	–	–	–	low micromolar
QRLMTLSVWKMYHSRMQRGGEDAWLSLMLSLAMRLG	–	–	–	–	0	–
RLPINLERALYRLSHLKLSNSKRELYEQVALKLAMLGFLNLVNHT	–	–	–	–	11.5	–
SLIWQSNMDKALVKLQLCHMLEQPDLTKSVMILAGVLAAQEFM	–	–	–	–	0	–
